Source: patent publication US9796755B2, “Methods of treating depression and other related diseases” (Northwestern University, priority 2009, dated 2017)
Where a SMILES comes first, the peptide text is derived from it.

Key:
[1] = tested on: glycogen synthase kinase 3β (GSK-3β); test: Total and phosphoserine-9 GSK-3β by ELISA in medial prefrontal cortex; format: in vivo, rat; conditions: 24 hrs after GLYX-13 3 mg/kg IV or ketamine 10 mg/kg IV
Source text: (§1) Total and Phosphoserine-9 glycogen synthase kinase 3β (GSK-3β) were quantified by ELISA according to the manufacturer's instructions (catalog numbers ADI-900-144 and ADI-900-123A, Assay Designs, USA). Total and phosphoserine-845 GluR1 were quantified by Western blot.

rats [2] = test: Prepulse inhibition; format: in vivo, rat; conditions: Sprague-Dawley rats; GLYX-13 10 mg/kg IV tested 15 min post injection; ketamine 10 mg/kg IP tested immediately
Procedure: Animals were given intravenous injections of GLYX-13 (10 mg/kg) or saline via chronic indwelling femoral vein cannulae and tested 15 min post injection, or intraperitoneal ketamine (10 mg/kg) or saline vehicle (1 mL/kg IV or IP respectively) and tested immediately post injection for prepulse inhibition.

GluR1 = test: Total and phosphoserine-845 GluR1 by Western blot in medial prefrontal cortex; format: in vivo, rat; conditions: 24 hrs after GLYX-13 3 mg/kg IV or ketamine 10 mg/kg IV
Source text: as §1

[3] = tested on: rat hippocampal organotypic cultures; test: LTP and LTD in rat hippocampal organotypic cultures; format: cell-based; conditions: in vitro
rats [4] = test: Drug discrimination in rats trained to discriminate ketamine from saline
Procedure: Testing was conducted as described previously (Nicholson K L & Balster R L (2009) The discriminative stimulus effects of N-methyl-D-aspartate glycine-site ligands in NMDA antagonist-trained rats. Psychopharmacology (Berl) 203(2):441-451). Adult male Sprague Dawley rats were trained to discriminate ketamine (10 mg/kg IP) from saline. Animals were then tested following various doses of GLYX-13 administration (3-156 mg/kg SC) and the percent of ketamine lever responding and rates of responding were recorded.

β-catenin = test: Total β-catenin protein level in medial prefrontal cortex; format: in vivo, rat; conditions: 24 hrs after GLYX-13 3 mg/kg IV or ketamine 10 mg/kg IV
NMDA receptor = biological target: T1, NMDA receptor (Rattus norvegicus, UniProt P35439); test: Pharmacologically isolated NMDAR EPSCs in hippocampal slices (CA1 pyramidal neurons); format: cell-based; conditions: NMDA receptor current, hippocampal slice assay; read-out: intrinsic activity relative to D-serine (full agonist)
T1 construct: from tissue; host or cells: rat hippocampal slices, CA1 pyramidal neurons
Procedure: Experiments were conducted on hippocampal slices from 14-18 day old Sprague-Dawley rats. Whole cell recordings were obtained from CA1 pyramidal neurons voltage clamped at −69 mV, in slices perfused with ACSF containing 0 mM [Mg2+] and 3 mM [Ca2+], plus 10 μM bicuculline and 20 μM CNQX to pharmacologically isolate NMDAR-dependent. EPSCs. Following bath applications of varying concentrations of GLYX-13 and D-serine, EPSCs were elicited by stimulating Schaffer collateral fibers with single electrical pulses (80 μs duration) once every 30 s.
Functional affinity, Kp, of GLYX-13 for the NMDAR was estimated using the equiactive concentration null method of Stephenson (Stephenson R. P. (1956) A modification of receptor theory. Br J Pharmacol Chemother 11(4):379-393) as exemplified by Kenakin (Kenakin T. P. (1997) Pharmacologic Analysis of Drug-Receptor Interaction (New York.)) In this analysis concentration-response curves are generated to full agonist, and to the full agonist in the presence of a set concentration of the partial agonist of interest (FIG. 18, Panel B). Equiactive concentrations arc read off the […] of each of the concentration-respouse curves and plotted as the concentration of full agonist [D-serine] alone and in the presence of partial agonist [GLYX-13] that produce equal effect.

C[C@@H](O)[C@H](N)C(=O)N1CCC[C@H]1C(=O)N1CCC[C@H]1C(=O)N[C@H](C(N)=O)[C@@H](C)O [GLYX-13, L-threonyl-L-prolyl-L-prolyl-L-threonine amide] (H-TPPT-NH2)
phosphoserine-9 GSK-3β/total GSK-3β ratio [1]: reduced | prepulse inhibition, an indicator of dissociative effects (rats [2]): did not exhibit either of these effects | Phosphoserine-845 GluR1/total GluR1 ratio (GluR1): increased | long-term depression (LTD) [3]: reducing | long-term potentiation (LTP) [3]: markedly elevate | suppression of operant responding (rates of responding) (rats [4]; SC, 3-156 mg/kg): did not suppress operant responding at any dose | ketamine-like discriminative stimulus effects (percentage ketamine-lever responding) (rats [4]; SC, dose range 3-156 mg/kg): did not show any ketamine-like discriminative stimulus effects | therapeutic index (rats [4]; drug discrimination highest dose vs Porsolt active dose 10 mg/kg SC, printed as 170:10): ≥ 17 | effect in the drug discrimination assay (rats [4]; highest dose evaluated, 156 mg/kg SC): essentially without effect | total β-catenin (β-catenin): reduced | Emax (NMDA receptor): 23%
